Source: PMC6211316, “Synthesis and biological evaluation of 3-arylcoumarin derivatives as potential anti-diabetic agents” (Journal of Enzyme Inhibition and Medicinal Chemistry, 2018)

Tested on: not listed separately
Assay: Oral toxicity to mice (Lorke's method)
Settings: both sexes, mouse, in vivo, Kunming mice, observed 14 days
Experimental: With reference to Lorke’s method, kunming mice were used as targets to estimate the oral toxicity of each compound to mice. We select compounds 11, 17, 25, 28, and 35 at concentrations of 10, 100, and 1000 mg/kg to test their oral toxicity in the first phase, and 1600, 2900, and 5000 mg/kg at the second phase.
Experiments were performed on Kunming mice (male and female half, bw range, 25–30 g). Mice were housed in a climate and light controlled room with a 12 h light/dark cycle. Twelve hours before experiments, food was withheld, but animals had free access to drinking water. The compounds were suspended in vehicle (Tween-80, 0.2% in saline). The concentrations were adjusted to orally administrate 0.2 ml/10 g of bw. Mice were treated in two phases. In the first, intragastric doses of 10, 100 and 1000 mg/kg of bw of compounds were administered. On the second, the doses were adjusted to 1600, 2900, and 5000 mg/kg of bw of compounds. In both phases, mice were observed daily in a period of 14 days for mortality, toxic effects and/or changes in behavioural pattern. At the end of the experiments, the mice were sacrificed in a CO2 chamber.
`Cc1ccc(-c2cc3c(O)cc(O)cc3oc2=O)cc1` [Compound 25, 5,7-Dihydroxy-3-(4-methylphenyl)-coumarin] gave an LD50 at 14 days of over 5000 mg/kg.
`Cc1ccccc1-c1cc2ccc(O)cc2oc1=O` [Compound 11, 7-Hydroxy-3-(2-methylphenyl)-coumarin] gave an LD50 at 14 days of over 5000 mg/kg.

Tested on: AGEs formation
Assay: In vitro inhibitory activity of AGEs formation (bovine serum albumin/glucose)
Format: biochemical
Settings: mean ± SD (n = 3)
Summary of the method: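 Bovine serum albumin (10 mg/mL) with 0.2 M glucose in 50 mM PBS, pH 7.4, plus 0.02% sodium azide, was mixed with compound solutions (0.5–1000 μg/mL in DMSO) and held 14 d at 37 °C. AGE fluorescence was read at ex 350/em 420 nm in triplicate. Inhibition was corrected with glucose-free blanks, and IC50 calculated.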
In the case of `Cc1ccc(-c2cc3c(O)cc(O)cc3oc2=O)cc1` [Compound 25, 5,7-Dihydroxy-3-(4-methylphenyl)-coumarin], the IC50 is reported as 45.8 ± 1.27 µM.
Work on `Cc1ccccc1-c1cc2ccc(O)cc2oc1=O` [Compound 11, 7-Hydroxy-3-(2-methylphenyl)-coumarin] yielded an IC50 of over 1000 µM.

Molecular target: T1, α-Glucosidase (Saccharomyces cerevisiae, UniProt P53341)
T1 construct: purchased Sigma Aldrich G0660-750UN
T1 sequence (P53341 whole entry): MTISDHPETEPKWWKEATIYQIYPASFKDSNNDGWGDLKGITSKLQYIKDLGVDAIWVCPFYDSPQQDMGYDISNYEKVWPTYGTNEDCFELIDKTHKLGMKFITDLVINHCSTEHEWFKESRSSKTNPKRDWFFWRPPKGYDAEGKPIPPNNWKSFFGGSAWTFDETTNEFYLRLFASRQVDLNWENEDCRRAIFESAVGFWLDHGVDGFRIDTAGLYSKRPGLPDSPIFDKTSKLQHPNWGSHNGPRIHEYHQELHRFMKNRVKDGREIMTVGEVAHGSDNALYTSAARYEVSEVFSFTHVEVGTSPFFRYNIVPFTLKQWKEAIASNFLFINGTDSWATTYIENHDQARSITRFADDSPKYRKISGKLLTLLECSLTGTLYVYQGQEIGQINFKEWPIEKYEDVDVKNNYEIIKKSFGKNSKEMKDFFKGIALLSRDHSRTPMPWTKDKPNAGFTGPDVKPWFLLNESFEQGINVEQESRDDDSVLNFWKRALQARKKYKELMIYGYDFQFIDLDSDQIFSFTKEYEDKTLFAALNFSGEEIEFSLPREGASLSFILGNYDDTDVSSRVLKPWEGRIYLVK
Assay: biochemical
Format: biochemical
Settings: in vitro
Summary of the method: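 Yeast α-glucosidase and PNPG substrate in 100 mM phosphate buffer, pH 6.8, with DMSO-dissolved compounds were preincubated 10 min at 37 °C, then reacted 20 min at 37 °C after enzyme addition. Na2CO3 stopped the reaction; p-nitrophenol was read at 405 nm. Blank-corrected % inhibition and IC50 came from triplicates.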
For `Cc1ccc(-c2cc3c(O)cc(O)cc3oc2=O)cc1` [Compound 25, 5,7-Dihydroxy-3-(4-methylphenyl)-coumarin], the “α-glucosidase inhibitory activity (in words)” value was “moderate to excellent inhibitory activity”.
In the case of `Cc1ccccc1-c1cc2ccc(O)cc2oc1=O` [Compound 11, 7-Hydroxy-3-(2-methylphenyl)-coumarin], the “α-glucosidase inhibitory activity (in words)” value is reported as “moderate to excellent inhibitory activity”.

Same assay, conditions: mean ± SD (n = 3); read-out: α-Glucosidase inhibitory activity IC50 Value
With `Cc1ccc(-c2cc3c(O)cc(O)cc3oc2=O)cc1` [Compound 25, 5,7-Dihydroxy-3-(4-methylphenyl)-coumarin] the IC50 was 11.5 ± 0.37 µM.
In the case of `Cc1ccccc1-c1cc2ccc(O)cc2oc1=O` [Compound 11, 7-Hydroxy-3-(2-methylphenyl)-coumarin], the IC50 is reported as 16.4 ± 1.23 µM.

Tested on: normal mice
Assay: Acute hypoglycemic assay in normal mice
Format: in vivo
Settings: 10 mg/kg of bw per os, 0h
Experimental: STZ-induced diabetic mice and normal mice were placed in single cages with wire-net floors and deprived of food for 12 h before experimentation but allowed free access to tap water throughout. The compounds (at the doses of 10, 30, and 100 mg/kg of bw) were suspended in 0.05% Tween-80 in saline solution. Glibenclamide (10 mg/kg of bw) was suspended in the same vehicle. The target compounds were freshly prepared immediately before experimentation and administered by the intragastrical route at the doses of 10 ml/kg of bw. Control mice received only the vehicle (0.05% Tween-80 in saline solution) by the same route. Blood glucose levels were measured at 0, 1.5, 3, 5, 7, and 9 h after drugs administration.
With `Cc1ccccc1-c1cc2ccc(O)cc2oc1=O` [Compound 11, 7-Hydroxy-3-(2-methylphenyl)-coumarin] the Blood glucose concentration was 10.0 ± 0.7 mM.

Same assay, conditions: 10 mg/kg of bw per os, 1.5h
In the case of `Cc1ccccc1-c1cc2ccc(O)cc2oc1=O` [Compound 11, 7-Hydroxy-3-(2-methylphenyl)-coumarin], the “% Variation of glycemia” value is reported as “(−15.27) %” and the Blood glucose concentration is reported as 9.1 ± 0.2 mM.

Same assay, conditions: 10 mg/kg of bw per os, 3h
With `Cc1ccccc1-c1cc2ccc(O)cc2oc1=O` [Compound 11, 7-Hydroxy-3-(2-methylphenyl)-coumarin] the “% Variation of glycemia” value was “(−28.35) %” and the Blood glucose concentration was 7.7 ± 0.6 mM.

Same assay, conditions: 10 mg/kg of bw per os, 5h
For `Cc1ccccc1-c1cc2ccc(O)cc2oc1=O` [Compound 11, 7-Hydroxy-3-(2-methylphenyl)-coumarin], the “% Variation of glycemia” value was “(−38.01) %” and the Blood glucose concentration was 6.6 ± 0.5 mM.

Same assay, conditions: 10 mg/kg of bw per os, 7h
With `Cc1ccccc1-c1cc2ccc(O)cc2oc1=O` [Compound 11, 7-Hydroxy-3-(2-methylphenyl)-coumarin] the “% Variation of glycemia” value was “(−47.98) %” and the Blood glucose concentration was 5.6 ± 0.4 mM.

Same assay, conditions: 10 mg/kg of bw per os, 9h
In the case of `Cc1ccccc1-c1cc2ccc(O)cc2oc1=O` [Compound 11, 7-Hydroxy-3-(2-methylphenyl)-coumarin], the “% Variation of glycemia” value is reported as “(−48.91) %” and the Blood glucose concentration is reported as 5.5 ± 1.2 mM.

Same assay, conditions: 30 mg/kg of bw per os, 0h
`Cc1ccccc1-c1cc2ccc(O)cc2oc1=O` [Compound 11, 7-Hydroxy-3-(2-methylphenyl)-coumarin] showed a Blood glucose concentration of 10.2 ± 1.2 mM.

Same assay, conditions: 30 mg/kg of bw per os, 1.5h
In the case of `Cc1ccccc1-c1cc2ccc(O)cc2oc1=O` [Compound 11, 7-Hydroxy-3-(2-methylphenyl)-coumarin], the “% Variation of glycemia” value is reported as “(−13.62) %” and the Blood glucose concentration is reported as 8.7 ± 1.2 mM.

Same assay, conditions: 30 mg/kg of bw per os, 3h
For `Cc1ccccc1-c1cc2ccc(O)cc2oc1=O` [Compound 11, 7-Hydroxy-3-(2-methylphenyl)-coumarin], the “% Variation of glycemia” value was “(−30.90) %” and the Blood glucose concentration was 6.9 ± 1.1 mM.

Same assay, conditions: 30 mg/kg of bw per os, 5h
With `Cc1ccccc1-c1cc2ccc(O)cc2oc1=O` [Compound 11, 7-Hydroxy-3-(2-methylphenyl)-coumarin] the “% Variation of glycemia” value was “(−40.86) %” and the Blood glucose concentration was 5.9 ± 1.1 mM.

Same assay, conditions: 30 mg/kg of bw per os, 7h
For `Cc1ccccc1-c1cc2ccc(O)cc2oc1=O` [Compound 11, 7-Hydroxy-3-(2-methylphenyl)-coumarin], the “% Variation of glycemia” value was “(−47.84) %” and the Blood glucose concentration was 5.2 ± 0.8 mM.

Same assay, conditions: 30 mg/kg of bw per os, 9h
With `Cc1ccccc1-c1cc2ccc(O)cc2oc1=O` [Compound 11, 7-Hydroxy-3-(2-methylphenyl)-coumarin] the “% Variation of glycemia” value was “(−49.17) %” and the Blood glucose concentration was 5.1 ± 0.6 mM.

Same assay, conditions: 100 mg/kg of bw per os, 0h
For `Cc1ccccc1-c1cc2ccc(O)cc2oc1=O` [Compound 11, 7-Hydroxy-3-(2-methylphenyl)-coumarin], the Blood glucose concentration was 10.4 ± 0.7 mM.

Same assay, conditions: 100 mg/kg of bw per os, 1.5h
In the case of `Cc1ccccc1-c1cc2ccc(O)cc2oc1=O` [Compound 11, 7-Hydroxy-3-(2-methylphenyl)-coumarin], the “% Variation of glycemia” value is reported as “(−31.37) %” and the Blood glucose concentration is reported as 7.0 ± 1.1 mM.

Same assay, conditions: 100 mg/kg of bw per os, 3h
With `Cc1ccccc1-c1cc2ccc(O)cc2oc1=O` [Compound 11, 7-Hydroxy-3-(2-methylphenyl)-coumarin] the “% Variation of glycemia” value was “(−42.16) %” and the Blood glucose concentration was 5.9 ± 0.6 mM.

Same assay, conditions: 100 mg/kg of bw per os, 5h
In the case of `Cc1ccccc1-c1cc2ccc(O)cc2oc1=O` [Compound 11, 7-Hydroxy-3-(2-methylphenyl)-coumarin], the “% Variation of glycemia” value is reported as “(−52.94) %” and the Blood glucose concentration is reported as 4.8 ± 1.3 mM.

Same assay, conditions: 100 mg/kg of bw per os, 7h
For `Cc1ccccc1-c1cc2ccc(O)cc2oc1=O` [Compound 11, 7-Hydroxy-3-(2-methylphenyl)-coumarin], the “% Variation of glycemia” value was “(−54.25) %” and the Blood glucose concentration was 4.7 ± 0.4 mM.

Same assay, conditions: 100 mg/kg of bw per os, 9h
In the case of `Cc1ccccc1-c1cc2ccc(O)cc2oc1=O` [Compound 11, 7-Hydroxy-3-(2-methylphenyl)-coumarin], the “% Variation of glycemia” value is reported as “(−58.17) %” and the Blood glucose concentration is reported as 4.3 ± 0.3 mM.
